Assay [1] has as its system Mus musculus. The experiment in a line: Evaluated for antimalarial activity against Plasmodium berghei in mice (Mus musculus) at 90 mg/kg; inactive. The class given is functional, organism-based. On the set-up: dose 90 mg/kg.
For assay [2], the system named is Mus musculus. The experiment in a line: Evaluated for antimalarial activity against Plasmodium berghei in mice (Mus musculus) at 30 mg/kg on day 6. It is filed as functional.
In assay [3] the test system is Mus musculus. The assay can be described thus: Evaluated for antimalarial activity against Plasmodium berghei in mice (Mus musculus) at 90 mg/kg; active. It is filed as functional, organism-based. On the set-up: dose 90 mg/kg.

Each structure is given as a SMILES string. The source made the active and inactive calls. The calls are words filed in the database; no cut-off is given here.

As for `C=C(c1ccccc1)C1COC2(CCCCC2)OO1` (stereo unspecified), in the assay on Mus musculus [1], the outcome was inactive.

In the case of `C=C(c1ccccc1)C1COC2(CCCC2)OO1` (stereo unspecified), the Suppression in the assay with Mus musculus [2] was above 90%. For the same molecule, in the assay on Mus musculus [3], the result was Active.

With `C=C(c1ccc(Cl)cc1)C1(C)COC2(CCCC2)OO1` (stereo unspecified), in the assay on Mus musculus [1], the result was inactive.

The molecule `C=C(c1ccc(Cl)cc1)C1COC2(CCCC2)OO1` (stereo unspecified) showed a Suppression in the assay on Mus musculus [2] above 90%. Moreover, the outcome with Mus musculus [3] was Active.

On to `C=C(c1ccc(Cl)cc1)C1COC2(CCCCC2)OO1` (stereo unspecified), for which the outcome in the assay with Mus musculus [3] was Active.

With `C=C(c1ccc(F)cc1)C1COC2(CCCCC2)OO1` (stereo unspecified), the result in the assay on Mus musculus [3] was Active.

`C=C(c1ccc(Cl)cc1)C1(C)COC2(CCCCC2)OO1` (stereo unspecified): the result in the assay with Mus musculus [1] was inactive.

As for `C=C(c1ccccc1)C1(C)COC2(CCCC2)OO1` (stereo unspecified), the outcome in the assay on Mus musculus [1] was inactive.

As to `C=C(c1ccc(C)cc1)C1COC2(CCCC2)OO1` (stereo unspecified), the outcome in the assay with Mus musculus [3] was Active.

Take `C=C(c1ccc(OC)cc1)C1COC2(CCCC2)OO1` (stereo unspecified): the outcome in the assay on Mus musculus [3] was Active.

With `C=C(c1ccc(OC)cc1)C1COC2(CCCCC2)OO1` (stereo unspecified), the outcome in the assay on Mus musculus [1] was inactive.

For the molecule `C=C(c1ccccc1)C1(C)COC2(CCCCC2)OO1` (stereo unspecified), the result in the assay on Mus musculus [1] was inactive.

On to `C=C(c1ccc(F)cc1)C1COC2(CCCC2)OO1` (stereo unspecified), for which the outcome in the assay on Mus musculus [3] was Active.

Regarding `C=C(c1ccc(C)cc1)C1COC2(CCCCC2)OO1` (stereo unspecified), the result with Mus musculus [1] was inactive.

For the origin of these results see ChEMBL document CHEMBL1128628, “in vivo potent antimalarial 1,2,4-trioxanes: Synthesis and activity of 8-(-arylvinyl)-6,7,10-trioxaspiro[4,5]decanes and 3-(-arylvinyl)-1,2,5-trioxaspiro[5,5]undecanes against Plasmodium berghei in mice” (1995).
